Measured values taken from patent US20230365592A1 (Agios Pharmaceuticals, Inc., priority 2022, published 2023).

The molecules below were run against T1, human PAH with the R408W mutation (Homo sapiens, UniProt P00439, R408W) (assay: Cell Based Phenylalanine Flux Assay). Settings: A375 cells expressing human PAH R408W; 24 hrs compound incubation; 13C-Tyrosine by LC-MS; average where tested multiple times; read-out: AC50.
T1 construct: expressed in transfected cells
T1 sequence (P00439 1-452 R408W): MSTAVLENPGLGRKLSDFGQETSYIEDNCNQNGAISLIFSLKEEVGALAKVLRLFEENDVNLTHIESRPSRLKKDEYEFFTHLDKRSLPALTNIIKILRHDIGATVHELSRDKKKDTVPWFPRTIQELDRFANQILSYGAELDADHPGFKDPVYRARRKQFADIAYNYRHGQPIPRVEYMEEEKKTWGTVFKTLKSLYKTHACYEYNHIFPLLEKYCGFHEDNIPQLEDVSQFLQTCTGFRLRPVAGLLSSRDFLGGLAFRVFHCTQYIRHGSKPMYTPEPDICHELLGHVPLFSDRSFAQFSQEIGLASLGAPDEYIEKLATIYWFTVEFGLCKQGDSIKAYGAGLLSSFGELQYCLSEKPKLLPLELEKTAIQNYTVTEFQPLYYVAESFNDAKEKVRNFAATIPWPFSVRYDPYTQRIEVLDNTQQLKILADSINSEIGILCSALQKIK
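Also: after compound treatment, cells received sepiapterin plus isotope-labelled Phenylalanine for 4 hours, then labelled Tyrosine in the medium was quantified, 10-point 2-fold dilution series run in duplicate.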

Row | AC50 | Structure (SMILES)
1 | < 500 nM | CC(C)(F)c1ncc(C(=O)N2CCc3[nH]cnc3[C@H]2c2cc3c(C(F)(F)F)cccn3n2)o1 [Example 2144, (S)-(2-(2-fluoropropan-2-yl)oxazol-5-yl)(4-(4-(trifluoromethyl)pyrazolo[1,5-a]pyridin-2-yl)-1,4,6,7-tetrahydro-5H-imidazo[4,5-c]pyridin-5-yl)methanone]
2 | > 5000 nM | CC(C)c1cccn2nc([C@H]3c4nc[nH]c4CCN3c3ccc(C(F)(F)F)cn3)cc12 [Example 2149, (R)-4-(4-isopropylpyrazolo[1,5-a]pyridin-2-yl)-5-(5-(trifluoromethyl)pyridin-2-yl)-4,5,6,7-tetrahydro-1H-imidazo[4,5-c]pyridine]
3 | > 5000 nM | COc1cccn2nc([C@H]3c4nc[nH]c4CCN3c3nnc(C(F)F)o3)cc12 [Example 2150, (R)-2-(difluoromethyl)-5-(4-(4-methoxypyrazolo[1,5-a]pyridin-2-yl)-1,4,6,7-tetrahydro-5H-imidazo[4,5-c]pyridin-5-yl)-1,3,4-oxadiazole]
4 | < 500 nM | COc1cccn2nc([C@@H]3c4nc[nH]c4CCN3c3nnc(C(F)F)o3)cc12 [Example 2151, (S)-2-(difluoromethyl)-5-(4-(4-methoxypyrazolo[1,5-a]pyridin-2-yl)-1,4,6,7-tetrahydro-5H-imidazo[4,5-c]pyridin-5-yl)-1,3,4-oxadiazole]
5 | < 500 nM | FC(F)Oc1cccn2nc([C@@H]3c4nc[nH]c4CCN3c3nnc(C(F)F)o3)cc12 [Example 2153, (S)-2-(4-(4-(difluoromethoxy)pyrazolo[1,5-a]pyridin-2-yl)-1,4,6,7-tetrahydro-5H-imidazo[4,5-c]pyridin-5-yl)-5-(difluoromethyl)-1,3,4-oxadiazole]
6 | 500 to 1000 nM | Cc1cccn2nc([C@@H]3c4nc[nH]c4CCN3c3nnc(-c4cnccn4)o3)cc12 [Example 2157, (S)-2-(4-(4-methylpyrazolo[1,5-a]pyridin-2-yl)-1,4,6,7-tetrahydro-5H-imidazo[4,5-c]pyridin-5-yl)-5-(pyrazin-2-yl)-1,3,4-oxadiazole]
7 | 500 to 1000 nM | FC(F)(F)c1cccn2nc([C@@H]3c4nc[nH]c4CCN3c3nnc(-c4ccncn4)o3)cc12 [Example 2162, (S)-2-(pyrimidin-4-yl)-5-(4-(4-(trifluoromethyl)pyrazolo[1,5-a]pyridin-2-yl)-1,4,6,7-tetrahydro-5H-imidazo[4,5-c]pyridin-5-yl)-1,3,4-oxadiazole]
8 | > 5000 nM | FC(F)(F)c1cccn2nc([C@H]3c4nc[nH]c4CCN3c3nnc(-c4ccncn4)o3)cc12 [Example 2163, (R)-2-(pyrimidin-4-yl)-5-(4-(4-(trifluoromethyl)pyrazolo[1,5-a]pyridin-2-yl)-1,4,6,7-tetrahydro-5H-imidazo[4,5-c]pyridin-5-yl)-1,3,4-oxadiazole]
9 | < 500 nM | COc1cccn2nc([C@@H]3c4nc[nH]c4CCN3c3nnc(C(F)(F)F)o3)cc12 [Example 2164, (S)-2-(4-(4-methoxypyrazolo[1,5-a]pyridin-2-yl)-1,4,6,7-tetrahydro-5H-imidazo[4,5-c]pyridin-5-yl)-5-(trifluoromethyl)-1,3,4-oxadiazole]
10 | > 5000 nM | COc1cccn2nc([C@H]3c4nc[nH]c4CCN3c3nnc(C(F)(F)F)o3)cc12 [Example 2165, (R)-2-(4-(4-methoxypyrazolo[1,5-a]pyridin-2-yl)-1,4,6,7-tetrahydro-5H-imidazo[4,5-c]pyridin-5-yl)-5-(trifluoromethyl)-1,3,4-oxadiazole]
11 | > 5000 nM | FC(F)c1nnc(N2CCc3[nH]cnc3[C@@H]2c2cc3c(C4CC4)cccn3n2)o1 [Example 2166, (R)-2-(4-(4-cyclopropylpyrazolo[1,5-a]pyridin-2-yl)-1,4,6,7-tetrahydro-5H-imidazo[4,5-c]pyridin-5-yl)-5-(difluoromethyl)-1,3,4-oxadiazole]
12 | 1000 to 5000 nM | CC(C)c1cccn2nc([C@H]3c4nc[nH]c4CCN3c3nnc(C4CC4)o3)cc12 [Example 2168, (R)-2-cyclopropyl-5-(4-(4-isopropylpyrazolo[1,5-a]pyridin-2-yl)-1,4,6,7-tetrahydro-5H-imidazo[4,5-c]pyridin-5-yl)-1,3,4-oxadiazole]
13 | < 500 nM | CC(C)c1cccn2nc([C@@H]3c4nc[nH]c4CCN3c3nnc(C4CC4)o3)cc12 [Example 2169, (S)-2-cyclopropyl-5-(4-(4-isopropylpyrazolo[1,5-a]pyridin-2-yl)-1,4,6,7-tetrahydro-5H-imidazo[4,5-c]pyridin-5-yl)-1,3,4-oxadiazole]
14 | < 500 nM | FC(F)(F)c1ccc(N2CCc3[nH]cnc3[C@H]2c2cc3c(C4CC4)cccn3n2)nc1 [Example 2170, (S)-4-(4-cyclopropylpyrazolo[1,5-a]pyridin-2-yl)-5-(5-(trifluoromethyl)pyridin-2-yl)-4,5,6,7-tetrahydro-1H-imidazo[4,5-c]pyridine]
15 | > 5000 nM | FC(F)(F)c1ccc(N2CCc3[nH]cnc3[C@@H]2c2cc3c(C4CC4)cccn3n2)nc1 [Example 2171, (R)-4-(4-cyclopropylpyrazolo[1,5-a]pyridin-2-yl)-5-(5-(trifluoromethyl)pyridin-2-yl)-4,5,6,7-tetrahydro-1H-imidazo[4,5-c]pyridine]
16 | < 500 nM | c1cnc(N2CCc3[nH]cnc3[C@H]2c2cc3c(C4CC4)cccn3n2)nc1 [Example 2172, (S)-4-(4-cyclopropylpyrazolo[1,5-a]pyridin-2-yl)-5-(pyrimidin-2-yl)-4,5,6,7-tetrahydro-1H-imidazo[4,5-c]pyridine]
17 | 1000 to 5000 nM | c1cnc(N2CCc3[nH]cnc3[C@@H]2c2cc3c(C4CC4)cccn3n2)nc1 [Example 2173, (R)-4-(4-cyclopropylpyrazolo[1,5-a]pyridin-2-yl)-5-(pyrimidin-2-yl)-4,5,6,7-tetrahydro-1H-imidazo[4,5-c]pyridine]
18 | < 500 nM | FC(F)(F)c1cnc(N2CCc3[nH]cnc3[C@H]2c2cc3c(C4CC4)cccn3n2)nc1 [Example 2174, (S)-4-(4-cyclopropylpyrazolo[1,5-a]pyridin-2-yl)-5-(5-(trifluoromethyl)pyrimidin-2-yl)-4,5,6,7-tetrahydro-1H-imidazo[4,5-c]pyridine]
19 | > 5000 nM | FC(F)(F)c1cnc(N2CCc3[nH]cnc3[C@@H]2c2cc3c(C4CC4)cccn3n2)nc1 [Example 2175, (R)-4-(4-cyclopropylpyrazolo[1,5-a]pyridin-2-yl)-5-(5-(trifluoromethyl)pyrimidin-2-yl)-4,5,6,7-tetrahydro-1H-imidazo[4,5-c]pyridine]
20 | > 5000 nM | Fc1cccn2nc([C@H]3c4nc[nH]c4CCN3c3nnc(-c4ccncn4)o3)cc12 [Example 2179, (R)-2-(4-(4-fluoropyrazolo[1,5-a]pyridin-2-yl)-1,4,6,7-tetrahydro-5H-imidazo[4,5-c]pyridin-5-yl)-5-(pyrimidin-4-yl)-1,3,4-oxadiazole]
21 | 500 to 1000 nM | CC(C)c1cccn2nc([C@@H]3c4nc[nH]c4CCN3c3nnc(-c4ccncn4)o3)cc12 [Example 2180, (S)-2-(4-(4-isopropylpyrazolo[1,5-a]pyridin-2-yl)-1,4,6,7-tetrahydro-5H-imidazo[4,5-c]pyridin-5-yl)-5-(pyrimidin-4-yl)-1,3,4-oxadiazole]
22 | > 5000 nM | CC(C)c1cccn2nc([C@H]3c4nc[nH]c4CCN3c3nnc(-c4ccncn4)o3)cc12 [Example 2181, (R)-2-(4-(4-isopropylpyrazolo[1,5-a]pyridin-2-yl)-1,4,6,7-tetrahydro-5H-imidazo[4,5-c]pyridin-5-yl)-5-(pyrimidin-4-yl)-1,3,4-oxadiazole]
23 | > 5000 nM | Clc1cccn2nc([C@H]3c4nc[nH]c4CCN3c3nnc(-c4ccncn4)o3)cc12 [Example 2183, (R)-2-(4-(4-chloropyrazolo[1,5-a]pyridin-2-yl)-1,4,6,7-tetrahydro-5H-imidazo[4,5-c]pyridin-5-yl)-5-(pyrimidin-4-yl)-1,3,4-oxadiazole]
24 | < 500 nM | CC(C)c1cccn2nc([C@@H]3c4nc[nH]c4CCN3c3ncc(C(F)(F)F)cn3)cc12 [Example 2185, (S)-4-(4-isopropylpyrazolo[1,5-a]pyridin-2-yl)-5-(5-(trifluoromethyl)pyrimidin-2-yl)-4,5,6,7-tetrahydro-1H-imidazo[4,5-c]pyridine]
25 | < 500 nM | Cc1nnc(N2CCc3[nH]cnc3[C@H]2c2cc3c(C4CC4)cccn3n2)o1 [Example 2187, (S)-2-(4-(4-cyclopropylpyrazolo[1,5-a]pyridin-2-yl)-1,4,6,7-tetrahydro-5H-imidazo[4,5-c]pyridin-5-yl)-5-methyl-1,3,4-oxadiazole]
26 | 500 to 1000 nM | Cc1cccn2nc([C@@H]3c4nc[nH]c4CCN3c3nnc(C4(C)CC4)o3)cc12 [Example 2189, (S)-2-(1-methylcyclopropyl)-5-(4-(4-methylpyrazolo[1,5-a]pyridin-2-yl)-1,4,6,7-tetrahydro-5H-imidazo[4,5-c]pyridin-5-yl)-1,3,4-oxadiazole]
27 | 500 to 1000 nM | CC(F)(F)c1nnc(N2CCc3[nH]cnc3[C@H]2c2cc3ccccn3n2)o1 [Example 2191, (S)-2-(1,1-difluoroethyl)-5-(4-(pyrazolo[1,5-a]pyridin-2-yl)-1,4,6,7-tetrahydro-5H-imidazo[4,5-c]pyridin-5-yl)-1,3,4-oxadiazole]
28 | < 500 nM | Cc1cccn2nc([C@@H]3c4nc[nH]c4CCN3c3nnc(C(C)(F)F)o3)cc12 [Example 2193, (S)-2-(1,1-difluoroethyl)-5-(4-(4-methylpyrazolo[1,5-a]pyridin-2-yl)-1,4,6,7-tetrahydro-5H-imidazo[4,5-c]pyridin-5-yl)-1,3,4-oxadiazole]
